Data as given in patent US20180136216A1, “Biomarkers for a Combination Therapy Comprising Lenvatinib and Everolimus” (EISAI R&D MANAGEMENT CO., LTD., priority 2015, published 2018).

Test system: metastatic renal cell carcinoma (RCC)
Assay: Phase 2 study (NCT01136733) of lenvatinib, everolimus or the combination; baseline serum Ang2 versus OS and PFS
Type: in vivo, human
Protocol: Purpose: A Phase 2 study for lenvatinib was performed in patients with metastatic renal cell carcinoma (RCC) following a VEGF-targeted therapy. The importance of angiogenesis in RCC highlights the need to understand clinical mechanisms of escape from anti-angiogenic therapy, such as everolimus. This clinical biomarker analysis was conducted to identify predictive markers of clinical benefit in RCC patients upon the combination therapy with lenvatinib and everolimus compared to everolimus monotherapy.
The purpose of this analysis was to measure Ang2 level in blood samples, such as serum, obtained from patients in clinical trials at both pre- and post-treatment with lenvatinib, everolimus or the combination thereof, and to identify blood biomarkers which can be used to predict whether patients will need the combination therapy.
Materials and Methods: Patients having metastatic renal cell carcinoma after a prior VEGF-targeted therapy received lenvatinib mesylate (“lenvatinib”), everolimus, or the combination thereof until disease progression or development of unmanageable toxicities. Patients received lenvatinib at a dose of 24 mg (as lenvatinib free base; the same shall apply hereinafter) oral once daily, everolimus at a dose of 10 mg oral once daily, or lenvatinib at 18 mg and everolimus at 5 mg oral once daily. 153 patients were treated and evaluated for efficacy and molecular correlative analysis. This study was a part of a Phase 2 multicenter study of lenvatinib (NCT01136733). Pre- and post-treatment serum samples were collected for biomarker analysis. Serum samples were collected on Cycle 1 Day 1 (pre-treatment), Cycle 2 Day 15, and Day 1 of every cycle from Cycle 2, and at off-treatment. Each Cycle consisted of 4 weeks (28 days). Ang2 detection enzyme immunoassay kit (EIDIA Co., Ltd.) was used for the quantification of serum Ang2 level. The association between the concentration at Cycle 1 Day 1 (“baseline level”) of Ang2 and clinical outcomes, such as progression free survival (PFS) and overall survival (OS), was assessed. PFS is defined as the time from the date of randomization to the date of first documentation of disease progression or death, whichever occurs first. PFS was based on investigator review data using RECIST 1.1. OS is defined as the time from randomization until death from any cause. “Randomization” means randomization of a patient into a test group or a control group when therapy plan for a patient is determined.

[1] = low baseline Ang2 (≤3760 pg/ml)

## CO[C@H]1C[C@@H]2CC[C@@H](C)[C@@](O)(O2)C(=O)C(=O)N2CCCC[C@H]2C(=O)O[C@H]([C@H](C)C[C@@H]2CC[C@@H](OCCO)[C@H](OC)C2)CC(=O)[C@H](C)/C=C(\C)[C@@H](O)[C@@H](OC)C(=O)[C@H](C)C[C@H](C)/C=C/C=C/C=C/1C [everolimus, (1R,9S,12S,15R,16E,18R,19R,21R,23S,24E,26E,28E,30S,32S,35R)-1,18-dihydroxy-12-{(1R)-2-[(1S,3R,4R)-4-(2-hydroxyethoxy)-3-methoxycyclohexyl]-1-methylethyl}-19,30-dimethoxy-15,17,21,23,29,35-hexamethyl-11,36-dioxa-4-aza-tricyclo[30.3.1.0^4,9]hexatriaconta-16,24,26,28-tetraene-2,3,10,14,20-pentaone]
High baseline Ang2 (>3760 pg/ml)
  median PFS: 5.5 months
High baseline Ang2 (>3760 pg/ml, 33rd percentile cut-off)
  median OS: 12.2 months
Higher baseline Ang2, 25th percentile cut-off (3565 pg/ml)
  median OS: 12.2 months
Higher baseline Ang2, 70th percentile cut-off (5650 pg/ml)
  median OS: 12.2 months
[1]
  median OS: not reached
  median PFS: 5.6 months
